From ChEMBL document CHEMBL3886786, “1,3 substituted azetidine PDE10 inhibitors” (2016)

Biological target: cAMP and cAMP-inhibited cGMP 3',5'-cyclic phosphodiesterase 10A (Homo sapiens, UniProt Q9Y233)
Experiment: Fluorescence Polarization Assay: The fluorescence polarization assay for cyclic nucleotide phosphodiesterases was performed using an IMAP® FP kit supplied by Molecular Devices, Sunnyvale, Calif. (product # R8139). IMAP® technology has been applied previously to phosphodiesterase assays (Huang, W., et al., J. Biomol Screen, 2002, 7: 215). Assays were performed at room temperature in 384-well microtiter plates with an incubation volume of 20.2 μL. Solutions of test compounds were prepared in DMSO and serially diluted with DMSO to yield 8 μL of each of 10 solutions differing by 3-fold in concentration, at 32 serial dilutions per plate. 100% inhibition is determined using a known PDE10 inhibitor, which can be any compound that is present at 5,000 times its Ki value in the assay described as follows, such as papaverine (see Siuciak, et al. Neuropharmacology (2006) 51:386-396; Becker, et al. Behav Brain Res (2008) 186(2):155-60; Threlfell, et al., J Pharmacol Exp Ther (2009) 328(3):785-795), 2-{4-[pyridin-4-yl-1-(2,2,2-trifluoroethyl)-1H-pyrazol-3-yl]phenoxymethyl}quinoline succinic acid or 2-[4-(1-methyl-4-pyridin-4-yl-1H-pyrazol-3-yl)-phenoxymethyl]quinoline succinic acid (see Schmidt, et al. J Pharmacol Exp Ther (2008) 325:681-690; Threlfell, et al., J Pharmacol Exp Ther (2009) 328(3): 785-795). 0% of inhibition is determined by using DMSO (1% final concentrations). […]

Chain of cAMP and cAMP-inhibited cGMP 3',5'-cyclic phosphodiesterase 10A (Q9Y233 whole entry): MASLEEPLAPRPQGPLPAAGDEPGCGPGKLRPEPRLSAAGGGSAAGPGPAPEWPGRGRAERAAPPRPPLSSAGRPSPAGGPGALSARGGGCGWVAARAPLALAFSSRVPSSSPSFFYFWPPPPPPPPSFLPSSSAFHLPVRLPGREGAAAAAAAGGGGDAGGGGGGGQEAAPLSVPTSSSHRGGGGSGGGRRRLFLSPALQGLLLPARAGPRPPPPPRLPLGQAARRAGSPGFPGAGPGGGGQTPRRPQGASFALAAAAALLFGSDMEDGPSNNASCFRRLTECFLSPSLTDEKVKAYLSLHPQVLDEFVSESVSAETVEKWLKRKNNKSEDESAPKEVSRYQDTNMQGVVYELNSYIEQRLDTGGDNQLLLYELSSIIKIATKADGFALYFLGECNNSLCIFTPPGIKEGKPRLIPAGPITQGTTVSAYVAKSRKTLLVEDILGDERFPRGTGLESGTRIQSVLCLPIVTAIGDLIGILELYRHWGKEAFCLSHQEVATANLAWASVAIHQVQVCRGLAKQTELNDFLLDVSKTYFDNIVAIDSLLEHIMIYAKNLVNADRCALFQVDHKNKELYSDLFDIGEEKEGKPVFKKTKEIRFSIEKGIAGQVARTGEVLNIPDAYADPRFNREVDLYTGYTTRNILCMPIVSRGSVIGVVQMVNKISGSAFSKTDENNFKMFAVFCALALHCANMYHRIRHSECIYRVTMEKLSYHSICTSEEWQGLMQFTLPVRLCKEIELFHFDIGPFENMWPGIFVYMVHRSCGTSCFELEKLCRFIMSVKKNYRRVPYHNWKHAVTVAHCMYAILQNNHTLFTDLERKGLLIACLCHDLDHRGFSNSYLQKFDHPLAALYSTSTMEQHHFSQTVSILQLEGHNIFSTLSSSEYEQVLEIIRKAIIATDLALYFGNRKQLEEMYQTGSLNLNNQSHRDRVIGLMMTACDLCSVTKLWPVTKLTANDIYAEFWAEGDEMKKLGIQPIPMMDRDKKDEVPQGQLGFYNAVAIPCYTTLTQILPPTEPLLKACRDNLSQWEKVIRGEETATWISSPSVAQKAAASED

- Ki: 2.2 nM
Compound: Cc1nc(N2CC(c3nc4ccccc4n3C)C2)cc(-n2nc(C)nc2C2CCOCC2)n1
